Test system: TGF-β activation
Experiment: Inventors' additional tests of TGF-β activation with synthetic KRFK and LSKL peptides
Description: Moreover, the group of Murphy-Ullrich at the University of Alabama, U.S.A. investigated the adherent-type TGF-β activation reaction by a glycoprotein, thrombospondin 1, and reported that TGF-β is activated by binding of KRFK sequence corresponding to amino acid numbers 412-415 of thrombospondin 1 to LSKL sequence corresponding to amino acid numbers 54-57 of LAP, and that the synthetic KRFK peptide activates TGF-β, whereas the synthetic LSKL peptide inhibits the TGF-β activation reaction (Schultz-Cherry et al., J. Biol. Chem. 270: 7304-7310, 1995; Crawford et al., Cell 93: 1159-1170, 1998; Ribeiro et al., J. Biol. Chem. 274: 13586-13593, 1999; Murphy-Ullrich and Poczatek Cytokine & Growth Factor Reviews 11: 59-69, 2000). The LSKL sequence derived from amino acid numbers 54-57 of the aforementioned LAP overlaps with the plasmin cleavage site K56-L57 identified by the present inventors. By binding to and cutting this portion, respectively, thrombospondin 1 and proteases may inhibit a noncovalent bond between this portion and active TGF-β molecule, resulting in release of the active TGF-β molecule from a latent complex (namely the TGF-β activation reaction). […] Murphy-Ullrich et al. indicated an involvement of a thrombospondin 1-dependent adherent-type TGF-β activation reaction in the pathogenesis of lung or pancreatic diseases, but not in the pathogenesis of liver diseases.

LSKL [LSKL peptide]
inhibition of TGF-β activation: could not reproduce
